Common to all, as to format: cell-based, human
The test system of one assay is Mayo PDX cells. Kind of assay: Matrigel invasion assay. How it is done: Invasion status of cells was tested with Matrigel Boyden chamber assays (Fisher). 1×10^5 cells were plated on BD BioCoat Matrigel invasion chambers. 24 hours after treatment with drugs, invaded cells were stained with the HEMA-3 kit (Fisher). Invaded cells were counted in 4-5 random fields.
An equal number of cells (5×10^4) were seeded on Matrigel coated inserts, and were untreated (control vehicle) or stimulated with 50 ng/ml EGF for 24 hours, cells invading to the other side of the membrane were counted and presented as percentage cell invasion. […] A similar invasion assay was conducted on GBM26 cells (FIG. 2D). […] Cells were transfected with EGFR or scrambled siRNA for 48 hours before the invasion assay. A similar invasion assay was performed on GBM6 (FIG. 2G). […] Cells were transiently transfected with empty or EGFR wildtype (EGFRwt) overexpressing vector, and invasion assay was performed after 48 hours after transfection. […] Cells were treated with or without 50 ng/ml EGF for 48 hours before the assay. The Western blot images are representative of three independent biological replicates. Actin served as loading control. Data are represented as mean±SEM from three independent experiments. *P<0.05, **P<0.01, n.s. not significant, unpaired two-tailed Student's t-test.
FIG. 3C and FIG. 3D show the results of a Matrigel invasion assay of EGFR siRNA knockdown in GBM12 and GBM6 in response to EGF. Cells were treated with EGFR or scrambled siRNA for 48 hours, transfected cells were seeded on Matrigel coated inserts and were treated with or without 50 ng/ml EGF for 24 hours. […] Cells were transiently transfected with EGFRvIII expression or empty vector, invasion assay was performed 48 hours after transfection. […] Western blot images are representative of three independent biological replicates. Actin served as a loading control. Data are represented as mean±SEM from three independent experiments. […], **P<0.01, ***P<0.001, n.s. not significant, unpaired two-tailed t-test.

For the next assay, the system named is BIN3. Kind of assay: BIN3 expression by Western blot / real-time PCR. How it is done: Mayo PDX cells were serum starved overnight. Following treatment for specific time, cells were harvested and lysed. The human glioblastoma tissues were ground in liquid nitrogen and then were lysed. […] TGFα antibody was from R&D system.
Total RNA from cells was extracted by TRIzol Reagent (Ambion). […] The expression of each gene was normalized to GAPDH as a reference. The following primers were used.
Specifically, Western blot analysis of BIN3 in PDXs in response to EGF was performed (FIG. 4A). Cells were serum starved overnight and treated with 50 ng/ml EGF for 48 hours. BIN3 mRNA levels in EGF-treated PDXs were determined by real-time PCR (FIG. 7B). […] Cells were treated with BIN3 or scrambled siRNA for 48 hours, transfected cells were treated with or without 50 ng/ml EGF for 24 hours. Similar experiments were conducted in GBM6 and GBM22 (FIG. 7D and FIG. 7E). Referring to FIG. 7F, knockdown efficiency of BIN3 siRNA was analyzed by Western blotting. […] Cells were transiently transfected with vector expressing BIN3 for 48 hours followed by invasion assay. […] EGR1 mRNA levels in GBM12 and GBM6 after EGF treatment were determined by real-time PCR (RT-PCR) (FIG. 7I). […] A similar experiment was performed in GBM6 (FIG. 7L). […] A similar experiment was performed in GBM6 (FIG. 7N). Knockdown efficiency of EGR-1 siRNA was analyzed by Western blotting (FIG. 7O). The Western blot images are representative of three independent biological replicates. Actin served as loading control. Data are represented as mean±SEM from three independent experiments. * P<0.05, **P<0.01, unpaired two-tailed t-test.
In general terms: A western blot detects proteins with antibodies after separation by electrophoresis.

The next assay has as its system DOCK7 and BIN3. Kind of assay: Co-immunoprecipitation of BIN3 and DOCK7. As to conditions: 24 hours. How it is done:
Cells were treated with 50 ng/ml EGF for 24 hours, BIN3 (sc-514396AC, Santa Cruz Biotechnology) or mouse IgG antibodies were incubated with whole cell lysates overnight at 4° C., and the mixtures were then incubated with 40 μl protein A/G slurry beads (Sigma) for 2 hours at 4° C. Beads were washed three times with lysis buffer, and immunoprecipitates were boiled in loading buffer for 5 min, subjected to SDS-PAGE followed by Coomassie stain. Bands were cut from the gel and submitted for Mass Spectrometry Facility, UTSW, Dallas. To identify BIN3 and DOCK7 complexes in PDXs upon EGF treatment, cell lysates were immunoprecipitated with DOCK7 antibody or BIN3 antibody, and analyzed by Western blot using BIN3 antibody.
Referring to FIG. 9A-S, BIN3 reduces invasion by interacting with DOCK7. Heat map of spectral counts of the top BIN3 interacting proteins identified by mass spectrometry in GBM12 treated with EGF (50 ng/ml) is shown in FIG. 9A. Western blot analysis of immunoprecipitated extracts from EGF-treated GBM12, GBM6, and GBM26 is illustrated in FIG. 9B. Cell lysates from cells treated with EGF (50 ng/ml) or control vehicle for 24 hours were immunoprecipitated by DOCK7 antibody, followed by Western blot for BIN3. Western blot analysis of BIN3 antibody immunoprecipitated extracts from GBM12, GBM6, and GBM26 24 hours after EGF or vehicle treatment is illustrated in FIG. 9C. […]

Regarding `C[C@@H]1CCN(C(=O)CC#N)C[C@@H]1N(C)c1ncnc2[nH]ccc12` [tofacitinib], the “responsiveness in invasion assay” value in the assay with Mayo PDX cells (GBM39 with HBEGF silenced vs. GBM39 control, tofacitinib 1 μM) is reported as “more responsive”. Also, the cell invasion entry with Mayo PDX cells (GBM44 with HB-EGF siRNA knockdown, tofacitinib 1 μM) is recorded as “inhibits invasion”; in the assay with Mayo PDX cells (tofacitinib 1 μM, 24 hours, multiple PDX lines), “inhibited invasiveness”. Also, the “upregulation of BIN3” value is on record as “do not respond” in the assay on BIN3 (GBM39 and GBM44 (high endogenous EGFR ligand, high BIN3), tofacitinib 1 μM, 48 hours); “could now upregulate BIN3” with BIN3 (GBM39 with HBEGF silenced, tofacitinib, 48 hours). In addition, the “BIN3 mRNA level” value in the assay on BIN3 (tofacitinib 1 μM, 24 hours, PDXs) is “upregulates BIN3 at the mRNA level”. Besides, in the assay with BIN3 (tofacitinib 1 μM, 48 hours, multiple PDX lines), the BIN3 protein level result is given as “strongly upregulated”. The BIN3 level entry in the assay with BIN3 (tofacitinib in cells treated with a saturating concentration of EGF, 48 hours, GBM12 and GBM6) is on record as “did not induce a further increase”.
Take “EGF: Recombinant human EGF (AF-100) from Peprotech; EGFR ligand”: the cell invasion entry in the assay with Mayo PDX cells (EGF 50 ng/ml, 24 hours, multiple Mayo PDX explant cultures expressing EGFRwt or EGFRvIII plus EGFRwt) is “suppressed invasion”; in the assay with Mayo PDX cells (EGFR overexpressing PDX cells exposed to EGF), “invasion is suppressed”. Further, the BIN3 protein level result in the assay with BIN3 (EGF 50 ng/ml, 48 hours, Mayo PDX lines, Western blot) is on record as “robust increase”. For the same compound, the “BIN3 mRNA level” value with BIN3 (EGF-treated PDXs, real-time PCR) is “regulated by EGF at the mRNA level”. Moreover, the “physical association between DOCK7 and BIN3” value in the assay with DOCK7 and BIN3 (EGF 50 ng/ml, GBM12, GBM6, GBM26) is given as “significantly induced a physical association”.
For the compound HGF: the ligand for Met, the cell invasion entry in the assay with Mayo PDX cells (HGF 20 ng/ml, 24 hours, GBM12 and GBM6) is “increased invasiveness”. The BIN3 levels result with BIN3 (HGF 20 ng/ml, 24 hours) is recorded as “does not affect BIN3 levels”. In addition, the “association between BIN3 and DOCK7” value with DOCK7 and BIN3 (HGF 20 ng/ml, GBM12 and GBM6) was “not detected”.

Values taken from US20230075368A1, “IDENTIFICATION OF AN EGFR-BIN3 PATHWAY THAT ACTIVELY SUPPRESSES INVASION AND REDUCES TUMOR SIZE IN GLIOBLASTOMA” (The United States Govemment as represented by the …, priority 2020, published 2023).
